{"source": "patent US9067974B2", "about": "“Polymyxin derivatives and uses thereof” (priority 2006, dated 2015)", "key": {"[1]": {"system": "Ac. baumannii ATCC19606", "assay": "E-test MIC of antibiotics on Mueller-Hinton agar with or without NAB7061 (4 μg/ml); sensitization factor = MIC ratio absence/presence", "format": "cell-based", "settings": "Acinetobacter baumannii, NAB 7061 0 μg/ml, A. baumannii ATCC19606", "method": "(§1) MICs were determined by using E-strips (Biodisk Ltd., Solna, Sweden) according to the manufacturer's instructions.\n(§2) The strains originated from ATCC (11 strains), CCUG (11 strains), and NCTC (The National Collection of Type Cultures, Colindale, U.K.; 2 strains). Eight strains (the F-strains) were purchased from Mobidiag Ltd., Helsinki, Finland. The source of E. coli IH3080 has been given in Example 2. Sensitization factor was defined as in Example 7.\n(§3) Sensitization factor was defined as in Example 7. NAB7061 sensitized both carbapenem-resistant strains (F263, F264) to both carbapenems by a factor ≧4."}, "[2]": {"system": "Ac. baumannii F263", "assay": "E-test MIC of antibiotics on Mueller-Hinton agar with or without NAB7061 (4 μg/ml); sensitization factor = MIC ratio absence/presence", "format": "cell-based", "settings": "Acinetobacter baumannii, NAB 7061 0 μg/ml, A. baumannii F263", "method": "as §1, §2, §3"}, "[3]": {"system": "Ac. baumannii F264", "assay": "E-test MIC of antibiotics on Mueller-Hinton agar with or without NAB7061 (4 μg/ml); sensitization factor = MIC ratio absence/presence", "format": "cell-based", "settings": "Acinetobacter baumannii, NAB 7061 0 μg/ml, A. baumannii F264", "method": "as §1, §2, §3"}, "[4]": {"system": "E. coli IH3080 (K1:O18)", "assay": "Well diffusion growth inhibition on LB agar plates (direct antibacterial activity)", "format": "cell-based, Escherichia coli", "procedure,_shortened": "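Growth inhibition of encapsulated E. coli IH3080 (K1:O18) was measured by well diffusion on LB agar plates. A suspension of about 10^8 cells/ml in 0.9% NaCl, made from an overnight LB agar culture, was spread over the plates and the excess removed. Once dry, five 2 mm wells were drilled per plate and test solutions added, with 0.9% NaCl as control. After 18 h at 37° C, inhibition zone diameters were measured and converted to surface areas in square mm.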"}, "[5]": {"system": "Pseudomonas aeruginosa ATCC 27853", "assay": "Well diffusion growth inhibition on LB agar plates (direct antibacterial activity)", "format": "cell-based", "settings": "Ps. aeruginosa ATCC 27853", "procedure,_shortened": "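Pseudomonas aeruginosa ATCC 27853 was tested for direct antibacterial susceptibility by agar well diffusion. A suspension of about 10^8 cells/ml in 0.9% NaCl was spread over LB agar and the excess removed. After drying, 2 mm wells were drilled and filled with compound dissolved in 0.9% NaCl, with NaCl alone as control. Plates were incubated 18 h at 37° C, and inhibition zone diameters were measured and converted to areas in square mm.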"}, "[6]": {"system": "Acinetobacter baumannii ATCC 19606", "assay": "Well diffusion growth inhibition on LB agar plates (direct antibacterial activity)", "format": "cell-based", "settings": "A. baumannii ATCC 19606", "procedure,_shortened": "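Direct antibacterial activity against Acinetobacter baumannii ATCC 19606 was measured by agar well diffusion on LB plates. The plates were flooded with a suspension of approx. 10^8 cells/ml in 0.9% NaCl, and the excess was removed. Once the surface dried, five wells of 2 mm diameter were drilled per plate. The wells were filled with test compound dissolved in 0.9% NaCl, with plain 0.9% NaCl as control. After 18 h at 37° C., inhibition zone diameters were measured and converted to growth inhibition areas in square mm.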"}, "[7]": {"assay": "Two-week intravenous toxicity study in young rats", "format": "in vivo", "method": "Toxicity in young rats (weighing approx. 150 g in the beginning of the study) was determined by administering doses (1, 2, 4, 8, 16, and 32 mg/kg per day) of NAB7061 as well as the control compound polymyxin B intravenously twice (2) a day for two weeks. A group of ten (10) rats was studied for each dosis regimen. Clinical observations were made daily, the body weight measured twice weekly, and the food consumption twice weekly. In the end of week 2, all animals were sacrificed.\nHistopathology of kidneys was performed for each animals and histopathology of all tissues was performed in three high-dose groups receiving NAB7061."}, "[8]": {"target": "brush-border membrane (BBM) from the renal cortex", "assay": "Inhibition of [3H] gentamycin binding to brush-border membrane vesicles", "set-up": "species or system rats", "settings": "20 μM [3H] gentamycin; 60 min at 4° C.; rat renal cortex BBM vesicles", "description": "The binding of the compounds according to this invention to isolated brush-border membrane (BBM) from the renal cortex can be measured indirectly by measuring their ability to inhibit the binding of radiolabelled gentamycin to BBM. Accordingly, the compounds according to this invention that have less affinity to BBM than for example polymyxin B inhibit the binding of radiolabelled gentamycin to a lesser degree than does polymyxin B.\nBBM was isolated from the renal cortex of male albino rats by using the Mg^2+/EGTA precipitation technique as described by Nagai et al. (2006). The binding of gentamycin was measured, according to the method described by Nagai et al. (2006) by incubating BBM vesicles (20 μl) in 10 mM HEPES (pH 7.5) with 100 mM mannitol in the presence of 20 μM [^3H] gentamycin (Amersham Biosciences Inc., Buckinghamshire, U.K.) with or without the compound to be tested or a positive control. After an incubation of 60 min at 4° C., 1 ml of ice-cold buffer described above was added, and the mixture was filtered through a Millipore filter (0.45 μm; HAWP). The filter was washed with the buffer and the radioactivity remaining in the filter was measured by using a liquid scintillation counter. The IC50 values were determined as in Nagai et al. (2006) using the Hill equation."}, "[9]": {"system": "E. coli IH3080", "assay": "Sensitization to rifampin: well diffusion growth inhibition on LB plates containing rifampin", "format": "cell-based, Escherichia coli", "settings": "4 μg of compound"}, "[10]": {"system": "E. coli", "settings": "Sakura et al. 2004; cited from earlier work"}}, "note": "Like-named read-outs stand apart in the source and are kept apart here."}
{"molecule": "C[C@@H](O)[C@H]1C(=O)N2C(C(=O)O)=C(SCCN=CN)C[C@H]12", "note": "[imipenem, reference compound]", "values": [{"measurement": "MIC", "setting": "[1]; read-out: MIC of imipenem", "result": 0.38, "unit": "µg/mL"}, {"measurement": "MIC", "setting": "[2]; read-out: MIC of imipenem", "result": "> 32", "unit": "µg/mL"}, {"measurement": "MIC", "setting": "[3]; read-out: MIC of imipenem", "result": 24, "unit": "µg/mL"}]}
{"molecule": "C[C@@H](O)[C@H]1C(=O)N2C(C(=O)O)=C(S[C@@H]3CN[C@H](C(=O)N(C)C)C3)[C@H](C)[C@H]12", "note": "[meropenem, reference compound]", "values": [{"measurement": "MIC", "setting": "[1]; read-out: MIC of meropenem", "result": 1.5, "unit": "µg/mL"}, {"measurement": "MIC", "setting": "[2]; read-out: MIC of meropenem", "result": "> 32", "unit": "µg/mL"}, {"measurement": "MIC", "setting": "[3]; read-out: MIC of meropenem", "result": 32, "unit": "µg/mL"}]}
{"molecule": "MO(H)A-XTX-cy[XXFLXXT], SEQ ID NO:1; commercially available polymyxin B is a mixture [reference compound]", "values": [{"measurement": "Antibacterial activity (growth inhibition area around a well)", "setting": "[4]; 4 μg of compound per well", "result": 79, "unit": "square millimeters"}, {"measurement": "Antibacterial activity (growth inhibition area around a well)", "setting": "[4]; 10 μg of compound per well", "result": 133, "unit": "square millimeters"}, {"measurement": "Antibacterial activity (growth inhibition area around a well)", "setting": "[5]; 4 μg per well", "result": 95, "unit": "square millimeters"}, {"measurement": "Antibacterial activity (growth inhibition area around a well)", "setting": "[5]; 10 μg per well", "result": 133, "unit": "square millimeters"}, {"measurement": "Antibacterial activity (growth inhibition area around a well)", "setting": "[6]; 4 μg per well", "result": 113, "unit": "square millimeters"}, {"measurement": "Antibacterial activity (growth inhibition area around a well)", "setting": "[6]; 10 μg per well", "result": 154, "unit": "square millimeters"}, {"measurement": "Rise of blood urea nitrogen (BUN) versus control or low dose group", "setting": "[7]; rat, in vivo, 16 mg/kg/day", "result": 15, "unit": "%"}, {"measurement": "Lowest dose that negatively influenced the body weight gain", "setting": "[7]; rat, in vivo, iv", "result": 1, "unit": "mg/kg per day"}, {"measurement": "Mortality", "setting": "[7]; rats, 32 mg/kg per day intravenously for two weeks", "result": 100, "unit": "%"}, {"measurement": "IC50", "setting": "[8]", "result": 39.3, "unit": "µM"}, {"measurement": "Antibacterial activity in the presence of rifampin (growth inhibition area around a well)", "setting": "[9]; rifampin 0 μg/ml", "result": 79, "unit": "square millimeters"}, {"measurement": "Antibacterial activity in the presence of rifampin (growth inhibition area around a well)", "setting": "[9]; rifampin 0.1 μg/ml", "result": 95, "unit": "square millimeters"}, {"measurement": "Antibacterial activity in the presence of rifampin (growth inhibition area around a well)", "setting": "[9]; rifampin 1.0 μg/ml", "result": 104, "unit": "square millimeters"}]}
{"molecule": "octanoyl polymyxin B heptapeptide [Octanoyl PMBH, reference compound]", "values": [{"measurement": "Antibacterial activity (growth inhibition area around a well)", "setting": "[4]; 4 μg of compound per well", "result": 0, "unit": "square millimeters"}, {"measurement": "Antibacterial activity (growth inhibition area around a well)", "setting": "[4]; 10 μg of compound per well", "result": 0, "unit": "square millimeters"}, {"measurement": "Concentration needed to inhibit the growth of bacteria", "setting": "[10]", "result": 128, "unit": "µg/mL"}, {"measurement": "Antibacterial activity in the presence of rifampin (growth inhibition area around a well)", "setting": "[9]; rifampin 0 μg/ml", "result": 0, "unit": "square millimeters"}, {"measurement": "Antibacterial activity in the presence of rifampin (growth inhibition area around a well)", "setting": "[9]; rifampin 0.1 μg/ml", "result": 0, "unit": "square millimeters"}, {"measurement": "Antibacterial activity in the presence of rifampin (growth inhibition area around a well)", "setting": "[9]; rifampin 1.0 μg/ml", "result": 38, "unit": "square millimeters"}]}
